# Test results from patent EP0461815A1, “Anti-HBV pyrimidine nucleoside” (THE WELLCOME FOUNDATION LIMITED, priority 1990, dated 1991).
# Where two headings read alike, the source gives them in different places.
# Columns and labels:
# Hepatitis B Virus (HBV) = experiment: Anti-HBV activity in HBV producer cell line HepG2 2.2.15: reduction of extracellular virion DNA and intracellular replicative intermediates; type: cell-based
# Experimental: The human HBV producer cell line of HepG2, 2.2.15, described and characterized by Sells et al., PNAS 84:1005, 1987 and J. Virol. […] This cell line was utilized in vitro to identify compounds with anti-HBV activity.
# Monolayer cultures were treated with 1-100µM of the active compound 1-(β-D-arabinofuranosyl)-5-prop-1-ynyluracil, for ten days. Supernatant media containing extracellular virion DNA (Dane particles) were harvested on day ten, treated with proteinase K (1 mg/mL) and sodium dodecyl sulfate (1%), and incubated at 50°C for one hour. DNA was extracted with equal volumes of phenol followed by chloroform and then precipitated by ammonium acetate and propanol. The DNA precipitate was dissolved and collected on nitrocellulose using the procedure of Schleicher and Schuell (S & S, 10 Optical Ave., Keene, NH 03431, Publication #700, 1987), and treated as described by Southern, J. Mol. Biol. 98:503, 1975. Cells were harvested, and the intracellular DNA. was obtained after cell lysis with guanidine isothiocyanate. The intracellular DNA was handled in the same manner as the extracellular DNA. After precipitation by ammonium acetate and propanol, the intracellular DNA precipitate was dissolved, cut by restriction endonuclease, Hind III, applied to agarose gel and then treated as described by Southern to determine the quantity of replicative intermediate forms. The antiviral effect of the drug was determined by measuring a reduction of the amount of Dane particles extruded into the culture medium (extracellular DNA) and a similar decrease in tie intracellular replicative intermediates (intracellular replicative form).
# [1] = Cell toxicity, cell growth inhibition assay (MTT uptake); type: cell-based; settings: monkey, Vero cells, 50% inhibition of cell viability at 96 hours, read-out: cell toxicity (CCID₅₀)
# Experimental: Cell toxicity is assessed in a cell growth inhibition assay. Subconfluent cultures of Vero cells grown on 96-well microtiter dishes are exposed to different dilutions of drug, and cell viability determined daily on replicate cultures using uptake of a tetrazolium dye (MTT). The concentration requried for a 50% inhibition of cell viability at 96 hours is termed CCID₅₀.
# [2] = HepG2 2.2.15, 240 h, Expt. 5, HepG2 2.2.15 cells, ten days, read-out: Percent (Reduction) Inhibition of Hepatitus B Virus DNA in Extracellular Media
# [3] = HepG2 2.2.15, 240 h, Expt. 6, HepG2 2.2.15 cells, ten days, read-out: Percent (Reduction) Inhibition of Hepatitus B Virus DNA in Extracellular Media
compound,measurement,setting,value
CC#Cc1cn([C@@H]2O[C@H](CO)[C@@H](O)[C@@H]2O)c(=O)[nH]c1=O [1-(β-D-Arabinofuranosyl)-5-prop-1-ynyluracil],Percent (Reduction) Inhibition of Hepatitus B Virus DNA in Extracellular Media,"Hepatitis B Virus (HBV); Expt. 5, 11μM, HepG2 2.2.15 cells, ten days",N.I.
same,Percent (Reduction) Inhibition of Hepatitus B Virus DNA in Extracellular Media,"Hepatitis B Virus (HBV); Expt. 6, 37μM, HepG2 2.2.15 cells, ten days",N.I.
same,inhibition at 33 µM,Hepatitis B Virus (HBV); [2],87.4%
same,inhibition at 37 µM,"Hepatitis B Virus (HBV); HepG2 2.2.15, 240 h, Expt. 5, 37μM, HepG2 2.2.15 cells, ten days, read-out: Percent (Reduction) Inhibition of Hepatitus B Virus DNA in Extracellular Media",55.3%
same,inhibition at 100 µM,Hepatitis B Virus (HBV); [2],94.4%
same,inhibition at 11 µM,"Hepatitis B Virus (HBV); HepG2 2.2.15, 240 h, Expt. 6, 11μM, HepG2 2.2.15 cells, ten days, read-out: Percent (Reduction) Inhibition of Hepatitus B Virus DNA in Extracellular Media",71.5%
same,inhibition at 33 µM,Hepatitis B Virus (HBV); [3],89.1%
same,inhibition at 100 µM,Hepatitis B Virus (HBV); [3],98.5%
same,inhibition at 100 µM,"Hepatitis B Virus (HBV); Hepatitis B virus, HepG2 2.2.15, 240 h, Expt. 5, value in parentheses, read-out: % reduction in intracellular hepatitis B virus DNA replicative form",88%
same,inhibition at 100 µM,"Hepatitis B Virus (HBV); Hepatitis B virus, HepG2 2.2.15, 240 h, Expt. 6, value in parentheses, read-out: % reduction in intracellular hepatitis B virus DNA replicative form",95.3%
same,inhibition at 1 µM,"Hepatitis B Virus (HBV); Hepatitis B virus, HepG2 2.2.15, Expt.7, 1μM, read-out: Percent Inhibition of Hepatitis B Specific Intracellular Replicative Form (RF) DNA",35%
same,inhibition at 10 µM,"Hepatitis B Virus (HBV); Hepatitis B virus, HepG2 2.2.15, Expt.7, 10μM, read-out: Percent Inhibition of Hepatitis B Specific Intracellular Replicative Form (RF) DNA",33%
same,inhibition at 100 µM,"Hepatitis B Virus (HBV); Hepatitis B virus, HepG2 2.2.15, Expt.7, read-out: Percent Inhibition of Hepatitis B Specific Intracellular Replicative Form (RF) DNA",42%
same,CC50 at 96 h,[1],> 500 µM
